Where a name gives a salt, the structure may show the parent alone.
Key:
human H4 = target: T1, human H4 (Homo sapiens, UniProt Q9H3N8); assay: In vitro histamine receptor cell-based assay (aequorin bioluminescence), H4 antagonism; conditions: CHO-K1 cells expressing human H4, aequorin and Gα16; histamine at EC80; read-out: H4 Antagonist EC50
T1 construct: host or cells: CHO-K1
Outline: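 CHO-K1 cells stably expressing human H4, Gα16 and mitochondrial aequorin, loaded with 5 μM coelenterazine-h, preincubated 15 min at room temperature with compound, then challenged with histamine at EC80.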

human H1 = target: T2, human H1 (Homo sapiens, UniProt P35367); assay: In vitro histamine receptor cell-based assay (aequorin bioluminescence), H1 antagonism; conditions: CHO-K1 cells expressing human H1 and aequorin; histamine at EC80; read-out: H1 Antagonist EC50
T2 construct: host or cells: CHO-K1
Experimental: The cell-based assays utilize an aequorin dependent bioluminescence signal. Doubly-transfected, stable CHO-K1 cell lines expressing human H1 or H4, mitochondrion-targeted aequorin, and (H4 only) human G protein Gα16 are obtained from Perkin-Elmer. Cells are maintained in F12 (Ham's) growth medium, containing 10% (vol./vol.) fetal bovine serum, penicillin (100 IU/mL), streptomycin (0.1 mg/mL), zeocin (0.25 mg/mL) and geneticin (0.40 mg/mL). Cell media components are from Invitrogen, Inc. One day prior to assay, the growth medium is replaced with the same, excluding zeocin and geneticin.
For assay preparation, growth medium is aspirated, and cells are rinsed with calcium-free, magnesium-free phosphate-buffered saline, followed by two to three minute incubation in Versene (Invitrogen, Inc.) at 37° C. Assay medium (DMEM:F12 [50:50], phenol-red free, containing 1 mg/mL protease-free bovine serum albumin) is added to collect the released cells, which are then centrifuged. The cell pellet is re-suspended in assay medium, centrifuged once more, and re-suspended in assay medium to a final density of 5×10^6 cells/mL. Coelenterazine-h dye (500 μM in ethanol) is added to a final concentration of 5 μM, and mixed immediately. The conical tube containing the cells is then wrapped with foil to protect the light-sensitive dye. The cells are incubated for four hours further at room temperature (approximately 21° C.) with end-over-end rotation to keep them in suspension.
Just before assay, the dye-loaded cells are diluted to 0.75×10^6 cells/mL (H1 receptor) or 1.5×10^6 cells/mL (H4 receptor) with additional assay medium. Cells are dispensed to 1536 well micro-titer plates at 3 μL/well. To assay receptor antagonism, 60 nl of 100× concentration test compounds in 100% dimethyl sulfoxide (DMSO) are dispensed to the wells, one compound per well, by passive pin transfer, and the plates are incubated for 15 minutes at room temperature. Assay plates are then transferred to a Lumilux bioluminescence plate reader (Perkin-Elmer) equipped with an automated 1536 disposable tip pipette. The pipette dispenses 3 μL/well of agonist (histamine, at twice the final concentration, where final concentration is a previously determined EC80) in assay medium, with concurrent bioluminescence detection. Agonist activity of test compounds is excluded by separate assays that measure response to test compounds immediately, without added histamine agonist.
CCD image capture on the Lumilux includes a 5 second baseline read prior to agonist addition, and generally a 40 second read per plate after agonist addition. A decrease in bioluminescence signal (measured either as area-under-the-curve, or maximum signal amplitude minus minimum signal amplitude) correlates with receptor antagonism in a dose dependent manner. The negative control is DMSO lacking any test compound. For antagonist assays, the positive controls are diphenhydramine (2-Diphenylmethoxy-N,N-dimethylethylamine, 10 μM final concentration, H1 receptor) or JNJ7777120 (1-[(5-Chloro-1H-indol-2-yl)carbonyl]-4-methyl-piperazine, 10 μM final concentration, H4 receptor). Efficacy is measured as a percentage of positive control activity.

T2 sequence (P35367 whole entry): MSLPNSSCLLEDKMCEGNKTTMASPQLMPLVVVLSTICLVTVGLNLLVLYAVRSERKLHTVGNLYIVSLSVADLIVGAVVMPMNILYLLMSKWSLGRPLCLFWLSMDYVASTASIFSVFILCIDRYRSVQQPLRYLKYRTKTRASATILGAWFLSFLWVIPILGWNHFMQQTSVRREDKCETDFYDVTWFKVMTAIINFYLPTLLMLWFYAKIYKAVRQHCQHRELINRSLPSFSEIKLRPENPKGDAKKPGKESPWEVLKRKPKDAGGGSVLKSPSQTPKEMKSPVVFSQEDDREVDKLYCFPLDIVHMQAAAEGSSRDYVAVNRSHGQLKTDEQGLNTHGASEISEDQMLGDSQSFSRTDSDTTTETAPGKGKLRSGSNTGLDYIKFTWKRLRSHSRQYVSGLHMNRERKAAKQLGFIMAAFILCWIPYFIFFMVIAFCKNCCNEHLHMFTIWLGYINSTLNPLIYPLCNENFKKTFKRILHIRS

| SMILES | EC50 (human H4) | EC50 (human H1) |
| --- | --- | --- |
| CN1CC2CN(c3nc4ccc(Cl)cc4n4cnnc34)CC2C1 (stereo not shown) [Example 62, 8-chloro-4-(5-methylhexahydropyrrolo[3,4-c]pyrrol-2(1H)-yl)-[1,2,4]triazolo[4,3-a]quinoxaline] | < 10 µM | > 10 µM |
| Clc1ccc2c(c1)nc(N1CCNCC1)c1nnnn12 [Example 16, 7-Chloro-4-(piperazin-1-yl)tetrazolo[1,5-a]quinoxaline] | < 10 µM | > 10 µM |
| CN1CCCN(c2nc3ccc(Cl)cc3n3cnnc23)CC1 [Example 68, 8-chloro-4-(4-methyl-1,4-diazepan-1-yl)-[1,2,4]triazolo[4,3-a]quinoxaline] | < 10 µM | > 10 µM |
| Cc1nnc2c(N3CCN(C)CC3)nc3ccc(Cl)cc3n12 [Example 84, 8-chloro-1-methyl-4-(4-methylpiperazin-1-yl)-[1,2,4]triazolo[4,3-a]quinoxaline] | < 10 µM | > 10 µM |
| Cc1nc2c(N3CCN(C)CC3)nc3ccc(Cl)cc3c2[nH]1 [Example 162, 8-Chloro-2-methyl-4-(4-methylpiperazinyl)imidazo[4,5-c]quinoline] | > 10 µM | > 10 µM |
| Cc1ccc2nc(N3CCN(C)CC3)c3nnnn3c2c1 [Example 15, 8-methyl-4-(4-methylpiperazin-1-yl)tetrazolo[1,5-a]quinoxaline] | < 10 µM | > 10 µM |
| Clc1ccc2nc(N3CCNCC3)c3occc3c2c1 [Example 148, 8-Chloro-4-(piperazin-1-yl)furo[2,3-c]quinoline] | < 10 µM | > 10 µM |
| Cc1nc2c(N3CCN(C)CC3)nc3cc(F)c(Cl)cc3c2o1 [Example 216, 8-chloro-7-fluoro-2-methyl-4-(4-methylpiperazin-1-yl)oxazolo[4,5-c]quinoline] | < 10 µM | > 10 µM |

Results, then the compound that gave them:

| EC50 (human H4) | EC50 (human H1) | SMILES |
| --- | --- | --- |
| > 10 µM | > 10 µM | Clc1ccc2nc(OC3CNC3)c3nncn3c2c1 [Example 72, 4-(azetidin-3-yloxy)-8-chloro-[1,2,4]triazolo[4,3-a]quinoxaline] |
| < 10 µM | > 10 µM | Cc1nc2c3cc(C(F)(F)F)cc(F)c3nc(N3CCNCC3)n2n1 [Example 128, 7-fluoro-2-methyl-5-(piperazin-1-yl)-9-(trifluoromethyl)-[1,2,4]triazolo[1,5-c]quinazoline hydrochloride] |
| > 10 µM | > 10 µM | C[C@@H]1CN(c2nc3ccc(Cl)cc3n3cnnc23)C[C@H](C)N1 [Example 83, 8-chloro-4-((3S,5R)-3,5-dimethylpiperazin-1-yl)-[1,2,4]triazolo[4,3-a]quinoxaline] |
| > 10 µM | > 10 µM | FC(F)(F)c1ccc2nc(N3CCNCC3)n3nc(C(F)(F)F)nc3c2c1 [Example 121, 5-(piperazin-1-yl)-2,9-bis(trifluoromethyl)-[1,2,4]triazolo[1,5-c]quinazoline] |
| > 10 µM | > 10 µM | Clc1ccc2nc(OCC3CNC3)c3nncn3c2c1 [Example 75, 4-(azetidin-3-ylmethoxy)-8-chloro-[1,2,4]triazolo[4,3-a]quinoxaline] |
| < 10 µM | > 10 µM | CN1CCN(c2nc3cc(Br)ccc3n3nnnc23)CC1 [Example 195, 7-bromo-4-(4-methylpiperazin-1-yl)tetrazolo[1,5-a]quinoxaline] |
| < 10 µM | > 10 µM | FC(F)(F)c1ccc2c(c1)nc(N1CCNCC1)c1nnnn12 [Example 30, 4-(piperazin-1-yl)-7-(trifluoromethyl)tetrazolo[1,5-a]quinoxaline hydrochloride] |
| < 10 µM | < 10 µM | Fc1cc2nc(N3CCNCC3)c3nccn3c2cc1F [Example 182, 7,8-difluoro-4-(piperazin-1-yl)imidazo[1,2-a]quinoxaline] |
| < 10 µM | > 10 µM | CN1CCN(c2nc3cc(C(F)(F)F)c(Cl)cc3n3cnnc23)CC1 [Example 46, 8-Chloro-4-(4-methylpiperazin-1-yl)-7-(trifluoromethyl)-[1,2,4]triazolo[4,3-a]quinoxaline] |

— patent US20120065187A1 (ALCON RESEARCH, LTD, priority 2008, published 2012)
